# Test results: US20220111034A1, “VIRUS COMPOSITIONS” (priority 2019, published 2022)
# Legend:
# [1] = test system: JAM-A; test: Biolayer interferometry (BLI) of JAM-A-reovirus interactions; format: binding; details: 1 mM free glycan
# Procedure: Virus binding to JAM-A was measured on a BLItz® (Pall ForteBio) biolayer interferometer equipped with a Ni2+-NTA biosensor (Pall ForteBio). After loading the chip in a 10 mM NiCl2 solution for 2 min and running an initial baseline step in milliQ water (1 min), JAM-A (0.2 mg mL^−1) was immobilized on the exposed Ni^2+ ions via its C-terminal His6 tag for 5 min until the binding signal reached a plateau (complete saturation of the biosensor). Binding of viral particles (T3SA+, T3SA− or ISVP; at 16 nM) in the absence or presence of 1 mM Neu5Ac was measured during a 10 min association step after another baseline step (virus buffer for 1 min). Dissociation was monitored directly after the association step for 10 min during which the virus solution was exchanged with virus buffer. Chip can be regenerated several times by exposing the biosensor to 10 mM Glycine pH 1.7 followed by a neutralization buffer (Kinetics Buffer). The resulting sensorgram (binding over time) was processed and fitted with a nonlinear regression approach using an association and then dissociation fit provided by GraphPad Prism. Virus concentration and time at which dissociation was initiated were constrained to constant values of 16 nM and 17 min, respectively. From that fit, koff and kon were extracted and KD was calculated.
# [2] = test system: cocultured CHO-JAM-A and Lec2-JAM-A cells; test: Single particle tracking by dynamic confocal microscopy; format: cell-based
# Procedure: A coculture of Lec2-JAM-A mCherry and CHO-JAM-A cells was seeded onto a 47-mm glass-bottomed petri dish (WillCo Wells) 1 or 2 d before the experiment to ensure formation of a confluent monolayer on the day of the experiment. Cells were imaged by laser scanning confocal microscopy using a Zeiss LSM 880 microscope with a 561 nm laser for mCherry and a 488 nm laser for Alexa488 and a 40× oil objective (NA=0.95). All experiments were conducted at room temperature with cells maintained in Ham's F12 culture medium and a gas mixture of synthetic air with 5% CO2 at 95% relative humidity that was infused at 0.1 L min^−1 into the microscopy chamber using a gas humidifier membrane (PermSelect silicone). The humidity was controlled using a humidity sensor (Sensirion). To ensure virus binding (and not internalization), the cells were placed on ice for 30 min before starting the experiment. After finding an area in which both cell types were adjacent (guided by fluorescence), Alexa488-labelled T3SA+ or T3SA− viruses (10^12 particles/mL) diluted in either F12 Ham's culture medium or 1 mM Neu5Ac solution (on ice) were added to the living cells. The fluorescent signal from both dyes (mCherry and Alexa488) as well as the signal from the PMT channel was recorded for a ˜30 min interval immediately after virus injection at a frame-rate of one image every 13.32 seconds. During recording, the focus was kept constant on the upper surface of cells. Fluorescence images were exported as 12-bit TIFF files, merged into a movie, and further processed using ImageJ (National Institutes of Health, Bethesda). Trajectories were harvested and analyzed using MTrackJ, an ImageJ plugin to track moving viral particles in the movie and obtain track statistics. The latter were further processed using Origin.
# [3] = test system: CHO cells; test: FD-based AFM with virus-functionalized tip on living CHO cells (cocultured with Lec2); format: cell-based; details: 1 mM, same area rescanned, FIG. 14i-l
# Procedure: NHS-PEG27-acetal linkers were used to functionalize AFM tips as described (Gruber. Crosslinkers and Protocols for AFM Tip Functionalization. https://wwwjku.at/institut-fuer-biophysik/forschung/linked, 2018; Wildling et al. Linking of sensor molecules with amino groups to aminofunctionalized AFM tips. Bioconjug. Chem. 2011, vol. 22, 1239-1248). AFM tips (PFQNM-LC and MSCT probes, Bruker) were immersed in chloroform for 10 min, rinsed with ethanol, dried with a stream of filtered nitrogen, cleaned for 10 min using an ultraviolet radiation and ozone (UV-0) cleaner (Jetlight), and immersed overnight in an ethanolamine solution (3.3 g of ethanolamine hydrochloride in 6.6 mL of DMSO). […]
# Correlative images were acquired on an AFM (Bioscope Catalyst and Bioscope Resolve, Bruker) operated in the PeakForce QNM mode (Nanoscope software v9.2) to conduct FD-based AFM and coupled to an inverted epifluorescence microscope (Zeiss Observer Z.1) as described (Newton et al. 2017, supra; Knoops et al. Specific Interactions Measured by AFM on Living Cells between Peroxiredoxin-5 and TLR4: Relevance for Mechanisms of Innate Immunity. Cell chemical biology 2018, vol. 25, 550-559, e553). […] Overview images of cell surfaces (20-30 μm^2) were recorded at imaging forces of ˜500 pN using PFQNM-LC probes (Bruker) having tip lengths of 17 μm, tip radii of 65 nm, and opening angles of 15°. […]
smiles,measurement,setting,value
"CC(=O)N[C@H]1[C@H]([C@H](O)[C@H](O)CO)OC(O)(C(=O)O)C[C@@H]1O (some centres unmarked) [Neu5Ac, N-acetylneuraminic acid]",influence on T3SA− binding to JAM-A,[1],had no influence
same,number of T3SA+ particles bound to CHO-JAM-A cells,"[2]; 1 mM free SA, FIG. 10g",significantly increased
same,diffusion potential of T3SA+ particles on the cell surface,"[2]; 1 mM glycan injected with viral particles, FIG. 10f",significant decrease of their diffusion potential
same,effect of free SA on diffusion and bound particles of T3SA−,"[2]; 1 mM, FIG. 10g",this effect was not observed
same,adhesion events of T3SA+ after injection of blocking glycan,[3],significant reduction of adhesion events
